Data: patent US12391641B2, “Prostaglandin EP4 receptor antagonist compounds” (NXERA PHARMA UK LIMITED, priority 2019, dated 2025)

Molecular target: T1, Human prostaglandin E2 receptor 4 (EP4) (Homo sapiens, UniProt P35408)
T1 construct: expressed in transfected cells; host or cells: HEK293 cells transduced with EP4 BacMam virus
Experiment: cAMP Gs Functional Assay (HTRF cAMP dynamic-2), antagonism of PGE2
Type: cell-based
Conditions: HEK293 cells transfected with EP4 BacMam virus; PGE2 challenge at EC80 (7 nM); pIC50 converted to functional pKb with a modified Cheng Prussoff equation; read-out: Human EP4 fpKb (converted)
Protocol: Cloning, Baculovirus generation, large scale infection of HEK293 cells and membrane preparation: Human prostaglandin E2 receptor 4 (EP4) was cloned into pBacMam expression vector (GeneScript, UK). Transposition of EP4 DNA was performed using Invitrogen's Bac-to-Bac Baculovirus Expression Systems. P0 baculovirus was generated by transfecting SF9 Cells with bacmid DNA using Cellfectin II transfection reagent (ThermoFisher Scientific, UK, catalog number 10362-100). Following P0 generation P1 virus was then generated ready for large scale infection and membrane preparation. HEK293 cells were grown in DMEM+Glutamax, supplemented with 10% heat inactivated fetal bovine serum (FBS). Cells were infected at a seeding density of 3.5 million cells/mL in 500 cm^3 flasks at 5% v/v EP4 Bacman. Expression was carried out over 36 hr period at 37° C. with 5% CO2. The cells were removed using PBS and a cell scrapper. The cell culture was centrifuged at 2500 RPM for 10 mins at 4° C. The supernatant was then poured off and the pellet stored at −80° C. The pellet was defrosted and re-suspended in 15 mL of homogenising buffer (20 mM HEPES, 10 mM EDTA, pH 7.4). Then homogenised in mechanical homogeniser (VMR) for 10 seconds. The membrane was centrifuged in centrifuge tubes at 40,000 g for 15 mins at 4° C. The supernatant was poured away and re-suspended in 15 mL of homogenising buffer. Homogenised for 20 seconds. The membrane was centrifuged at 40,000 g for 45 mins at 4° C. The membrane was re-suspended in 3 mL of storage buffer (20 mM HEPES, 0.1 mM EDTA, pH 7.4) mixing well. The resulting membranes were then stored at −80° C.
cAMP Gs Functional Assay: cAMP production following EP4 receptor activation was determined using the Homogeneous Time-Resolved Fluorescence (HTRF) cAMP dynamic-2 assay (Cisbio, France). HEK293 cells were transfected using a 0.5% EP4 Bacman virus for 36 hours, before dissociating the cells, and freezing at […].
On the day of testing, increasing concentration of test compounds, alongside positive controls (1 uM ONO-AE3-208) and negative control (DMSO (Sigma-Aldrich, UK) were added to a ProxiPlate-384 Plus, White 384-shallow well Mircoplate, (PerkinElmer, USA) using the ECHO dispense.
Cells were defrosted in a water bath and resuspended in DMEM supplemented with 10% FBS before centrifuging at 1200 RPM for 5 mins to form a pellet. The pellet was resuspended in assay buffer (DMEM+0.5 mM IBMX (Tocris, Abingdon, UK, Catalog Number 2845)) to a 1×10^6 cells/mL. Cell suspension, for a final assay concentration of 5000 cell/well was added using the multidrop to the pre-dispensed assay plate. The plate was then incubated at 37° C. for 30 mins, with 5% CO2. After incubation, EC80 concentration (7 nM) of PGE2 (EP4 agonist) was added to the plate. In parallel, a PGE2 dose-response curve was dispense to a separate plate. Assay buffer was then dispensed on top. The cAMP production was determined as manufacturer's instructions, before plates were read on a PheraStar fluorescence plate reader (BMG LabTech, Germany).
The pIC50 was converted to a functional pKb value using a modified Cheng Prussoff equation where Kd=agonist EC50 and Lhot=agonist challenge concentration;

T1 sequence (P35408 whole entry): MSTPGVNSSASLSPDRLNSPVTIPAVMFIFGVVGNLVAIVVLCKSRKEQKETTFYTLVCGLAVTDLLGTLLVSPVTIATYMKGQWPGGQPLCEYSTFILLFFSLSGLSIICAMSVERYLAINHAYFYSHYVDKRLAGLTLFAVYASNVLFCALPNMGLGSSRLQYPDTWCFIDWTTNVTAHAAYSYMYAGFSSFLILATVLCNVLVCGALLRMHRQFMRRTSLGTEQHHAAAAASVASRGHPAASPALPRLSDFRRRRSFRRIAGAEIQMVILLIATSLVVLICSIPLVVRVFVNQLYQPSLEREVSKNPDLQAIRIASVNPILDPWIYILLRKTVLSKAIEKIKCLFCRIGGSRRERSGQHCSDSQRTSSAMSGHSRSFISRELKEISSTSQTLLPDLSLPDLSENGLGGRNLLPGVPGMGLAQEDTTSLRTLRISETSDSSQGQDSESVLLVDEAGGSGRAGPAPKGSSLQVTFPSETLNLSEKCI

Row | Compound | Ki [nM]
1 | C[C@H](NC(=O)C(OCc1ccc(C(F)(F)F)cc1)C1CCC1)c1ccc(C(=O)O)cc1 (mixture of isomers) [Example 92, 4-((1S)-1-(2-cyclobutyl-2-((4-(trifluoromethyl)benzyl)oxy)acetamido)ethyl)benzoic acid] | 4.68
2 | C[C@H](NC(=O)C(OCc1ccc(C(F)(F)F)cc1)C1CCC1)c1ccc(C(=O)O)cc1 (single isomer, unassigned) [Example 93] | 3.63
3 | CC(C)C(OCc1cccc(F)c1)C(=O)N[C@@H](C)c1ccc(C(=O)O)cc1 (single isomer, unassigned) [Example 17] | 3.02
4 | CS(=O)(=O)c1cccc(COC(C(=O)NC2(c3ccc(C(=O)O)cc3)CC2)C2CCC2)c1 (centres unmarked) [Example 95, 4-(1-(2-cyclobutyl-2-((3-(methylsulfonyl)benzyl)oxy)acetamido)cyclopropyl)benzoic acid] | 79.4
5 | CC(C)[C@@H](OCc1ccc(F)c(F)c1)C(=O)NC1(c2ccc(C(=O)O)cc2)CC1 [Example 37, (R)-4-(1-(2-((3,4-difluorobenzyl)oxy)-3-methylbutanamido)cyclopropyl)benzoic acid] | 1.23
6 | CC(C)[C@@H](OCc1ccc(C(F)(F)F)cc1)C(=O)NC1(c2ccc(C(=O)NS(C)(=O)=O)cc2)CC1 [Example 63, (R)-4-(1-(3-methyl-2-((4-(trifluoromethyl)benzyl)oxy)butanamido)cyclopropyl)-N-(methylsulfonyl)benzamide] | 25.7
7 | CC(C)[C@@H](OCc1ccc(C(F)F)cc1)C(=O)NC1(c2ccc(C(=O)O)cc2)CC1 [Example 62, (R)-4-(1-(2-((4-(difluoromethyl)benzyl)oxy)-3-methylbutanamido)cyclopropyl)benzoic acid] | 0.398
8 | Cc1cc([C@H](C)NC(=O)[C@H](OCc2ccc(C(F)(F)F)cc2)C(C)C)ccc1C(=O)O [Example 36, 2-methyl-4-((S)-1-((R)-3-methyl-2-((4-(trifluoromethyl)benzyl)oxy)butanamido)ethyl)benzoic acid] | 25.7
9 | CC(C)C(OCc1cccc(C2COC2)c1)C(=O)N[C@@H](C)c1ccc(C(=O)O)cc1 (single isomer, unassigned) [Example 49] | 2.29
10 | CC(C)[C@@H](OCc1ccc(F)c(OC(F)F)c1)C(=O)N[C@@H](C)c1ccc(C(=O)O)cc1 [Example 32, 4-((S)-1-((R)-2-((3-(difluoromethoxy)-4-fluorobenzyl)oxy)-3-methylbutanamido)ethyl)benzoic acid] | 0.224
11 | O=C(O)c1ccc(C2(NC(=O)C(OCc3cccc(Cl)c3)C3CCC3)CC2)cc1 (centres unmarked) [Example 98, 4-(1-(2-((3-chlorobenzyl)oxy)-2-cyclobutylacetamido)cyclopropyl)benzoic acid] | 1.48
12 | CC(C)[C@@H](OCc1ccc(C(F)F)c(F)c1)C(=O)NC1(c2ccc(C(=O)O)cc2)CC1 [Example 61, (R)-4-(1-(2-((4-(difluoromethyl)-3-fluorobenzyl)oxy)-3-methylbutanamido)cyclopropyl)benzoic acid] | 0.339
13 | CC(C)[C@@H](OCc1ccc(C(F)(F)F)cc1)C(=O)N[C@@H](C)c1ccc(C(=O)NS(C)(=O)=O)cc1 [Example 53, 4-((S)-1-((R)-3-methyl-2-((4-(trifluoromethyl)benzyl)oxy)butanamido)ethyl)-N-(methylsulfonyl)benzamide] | 64.6
14 | CC(C)[C@@H](OCc1ccc(F)cc1)C(=O)N[C@@H](C)c1ccc(C(=O)NS(=O)(=O)C2CC2)cc1 [Example 81, N-(cyclopropylsulfonyl)-4-((S)-1-((R)-2-((4-fluorobenzyl)oxy)-3-methylbutanamido)ethyl)benzamide] | 302
15 | CC(C)[C@@H](OCc1ccc(C(F)F)nc1)C(=O)NC1(c2ccc(C(=O)O)cc2)CC1 [Example 84, (R)-4-(1-(2-((6-(difluoromethyl)pyridin-3-yl)methoxy)-3-methylbutanamido)cyclopropyl)benzoic acid] | 11.2
16 | O=C(O)c1ccc(C2(NC(=O)C(OCc3ccc(C(F)(F)F)cc3)C3CCC3)CC2)cc1 (centres unmarked) [Example 96, 4-(1-(2-cyclobutyl-2-((4-(trifluoromethyl)benzyl)oxy)acetamido)cyclopropyl)benzoic acid] | 6.61
17 | CC(C)[C@@H](OCc1ccc(C(F)(F)F)cc1)C(=O)N[C@@H](C)c1ccc(C(=O)O)cc1 [Example 1, 4-((S)-1-((R)-3-methyl-2-((4-(trifluoromethyl)benzyl)oxy)butanamido)ethyl)benzoic acid] | 0.776
18 | CC(C)[C@@H](OCc1cc(OC(F)F)ccn1)C(=O)NC1(c2ccc(C(=O)O)cc2)CC1 [Example 68, (R)-4-(1-(2-((4-(difluoromethoxy)pyridin-2-yl)methoxy)-3-methylbutanamido)cyclopropyl)benzoic acid] | 0.562
19 | CC(C)[C@@H](OCc1cccc(C2CC2)c1)C(=O)NC1(c2ccc(-c3nnn[nH]3)cc2)CC1 [Example 80, (R)-2-((3-cyclopropylbenzyl)oxy)-N-(1-(4-(2,3-dihydro-1H-tetrazol-5-yl)phenyl)cyclopropyl)-3-methylbutanamide] | 0.195
20 | CC(C)[C@@H](OCc1cccc(C2CC2)c1)C(=O)NC1(c2ccc(C(=O)O)cc2)CC1 [Example 65, (R)-4-(1-(2-((3-cyclopropylbenzyl)oxy)-3-methylbutanamido)cyclopropyl)benzoic acid] | > 209
21 | CC(C)[C@@H](OCc1cccc(Cl)c1)C(=O)N[C@@H](C)c1ccc(C(=O)O)cc1 [Example 12, 4-((S)-1-((R)-2-((3-chlorobenzyl)oxy)-3-methylbutanamido)ethyl)benzoic acid] | 0.813
22 | CC(C)[C@@H](OCc1ccnc(OC(F)F)c1)C(=O)NC1(c2ccc(C(=O)O)cc2)CC1 [Example 67, (R)-4-(1-(2-((2-(difluoromethoxy)pyridin-4-yl)methoxy)-3-methylbutanamido)cyclopropyl)benzoic acid] | 0.575
23 | CC(C)[C@@H](OCc1cccc(OC(F)F)c1)C(=O)N[C@@H](C)c1ccc(-c2nnn[nH]2)cc1 [Example 82, (R)—N—((S)-1-(4-(1H-tetrazol-5-yl)phenyl)ethyl)-2-((3-(difluoromethoxy)benzyl)oxy)-3-methylbutanamide] | 0.0871
24 | CC(C)[C@@H](OCc1cc(OC(F)F)ccn1)C(=O)N[C@@H](C)c1ccc(C(=O)O)cc1 [Example 77, 4-((S)-1-((R)-2-((4-(difluoromethoxy)pyridin-2-yl)methoxy)-3-methylbutanamido)ethyl)benzoic acid] | 27.5
25 | CC(C)[C@@H](OCc1ccc(F)cc1)C(=O)N[C@@H](C)c1ccc(C(=O)O)cc1 [Example 5, 4-((S)-1-((R)-2-((4-fluorobenzyl)oxy)-3-methylbutanamido)ethyl)benzoic acid] | 4.17
26 | CC(C)[C@@H](OCc1cccc(C2CC2)c1)C(=O)N[C@@H](C)c1ccc(C(=O)O)cc1 [Example 39, 4-((S)-1-((R)-2-((3-cyclopropylbenzyl)oxy)-3-methylbutanamido)ethyl)benzoic acid] | 0.229
27 | CC(C)[C@@H](OCc1cccc(S(C)(=O)=O)c1)C(=O)NC1(c2ccc(C(=O)O)cc2)CC1 [Example 33, (R)-4-(1-(3-methyl-2-((3-(methylsulfonyl)benzyl)oxy)butanamido)cyclopropyl)benzoic acid] | 14.5
28 | O=C(O)c1ccc(C2(NC(=O)C(OCc3cccc(OC(F)F)c3)C3CCC3)CC2)cc1 (centres unmarked) [Example 99, 4-(1-(2-cyclobutyl-2-((3-(difluoromethoxy)benzyl)oxy)acetamido)cyclopropyl)benzoic acid] | 3.31
29 | CC(C)[C@@H](OCc1cccc(C#N)c1)C(=O)N[C@@H](C)c1ccc(C(=O)O)cc1 [Example 22, 4-((S)-1-((R)-2-((3-cyanobenzyl)oxy)-3-methylbutanamido)ethyl)benzoic acid] | 7.24
